Measurements: patent publication US20100279990A1, “ANTIPROLIFERATIVE COMPOUNDS, COMPOSITIONS AND METHODS OF USE” (RAMOT AT TEL-AVIV UNIVERSITY LTD., priority 2006, published 2010)

Tests used:
[1] = tested on: IFN γ secretion in Con-A activated naive mouse splenocytes; assay: IFN γ secretion in Con-A activated naive mouse splenocytes; type: cell-based; conditions: FIG. 3B
Description: This example illustrates IFN y secretion data obtained by separately administering different concentrations of compound (Ia), paroxetine, citalopram, and ecitalopram to Con-A activated naive mouse splenocytes. The results are depicted in FIG. 3B.

[2] = tested on: PHA activated healthy human T cells; assay: PHA induced proliferation of healthy human lymphocytes, alamar blue; type: cell-based
[3] = tested on: human glioma U87 cells; assay: Viability of human glioma U87 cell-line; type: cell-based; conditions: FIG. 9
[4] = tested on: male Balb/C mice; assay: Acute toxicity in male Balb/C mice, ip; type: in vivo
Protocol: This example illustrates acute toxicity data derived from the treatment of male Balb/C mice with different concentrations of compound (Ia). The results are depicted in FIG. 11. Compound (Ia) was administered ip to groups of mice at doses of 10, 20 and 30 mg/kg. Sertraline was also administered to one group at 30 mg/kg. Each group of mice included five animals.
Body weight was determined up to 12 days after drug administration.

[5] = tested on: human colon carcinoma cells (HT29); assay: HT29 human colon carcinoma s.c. tumor in Nude CD1 male mice; type: in vivo
Description: This example illustrates the effect of several compounds, including an exemplary compound of the present invention, on tumor volume. tumor weight and body weight in mice. Nude CD1 male mice were purchased from Harlan (Israel). Animals were housed under controlled conditions (temperature, humidity) and were given food and water ad libitum. After one week of acclimatization animals were inoculated s.c. with human colon carcinoma cells (HT29) (2,000,000 cell/animals.). Therapy began 8 days after inoculation, at which time the animals were divided randomly into 4 groups (7-8 mice/group) and administered ip 3 times weekly for 4 weeks with the following compounds: […] Body weight and tumor volume were measured weekly. Tumor volume is defined as (shortest diameter)^2×(longest diameter)×0.5. At the end of the treatment, animals were sacrificed and tumors and organs collected and weighed.

[6] = tested on: CNXF 498NL; assay: Monolayer Assay, PI: CNXF 498NL; type: cell-based, human
Description: (§1) This example illustrates cell proliferation data in the form of IC50, IC70 and IC90 values obtained by exposure of human cancer cell-lines to compound (Ia). […].

[7] = tested on: CXF HT29; assay: Monolayer Assay, PI: CXF HT29 (Colorectal); type: cell-based, human
Description: as §1

[8] = tested on: GXF 251L; assay: Monolayer Assay, PI: GXF 251L (Gastric); type: cell-based, human
Description: as §1

[9] = tested on: LXF 289L; assay: Monolayer Assay, PI: LXF 289L (Lung); type: cell-based, human
Description: as §1

[10] = tested on: MEXF 276L; assay: Monolayer Assay, PI: MEXF 276L (Melanoma); type: cell-based, human
Description: as §1

[11] = tested on: OVXF 1619L; assay: Monolayer Assay, PI: OVXF 1619L (Ovarian Cancer); type: cell-based, human
Description: as §1

[12] = tested on: PRXF 22RV1; assay: Monolayer Assay, PI: PRXF 22RV1 (Prostate); type: cell-based, human
Description: as §1

[13] = tested on: PRXF DU145; assay: Monolayer Assay, PI: PRXF DU145 (Prostate); type: cell-based, human
Description: as §1

[14] = tested on: RXF 944L; assay: Monolayer Assay, PI: RXF 944L (Renal); type: cell-based, human
Description: as §1

[15] = tested on: human colon carcinoma cells (HT29)

## CN[C@H]1CC[C@@H](c2ccc(Cl)c(Cl)c2)c2ccc(C#CCCCO)cc21 [compound (Ia), (1S-cis)-4-(3,4-dichlorophenyl)-7-(5-hydroxy-1-pentyn-1-yl)-1,2,3,4-tetrahydro-N-methyl-1-naphthalenamine hydroiodide]
[1]
  IFN γ secretion inhibitory activity: greater IFN γ secretion inhibitory activity than paroxetine, citalopram, and ecitalopram
[2]
  potency relative to sertraline: about 3 times
[2]; T-cell, 48 hr, alamar blue
  IC50: 9.8 µM
[3]
  effect on cell viability: inhibit this glioma cell-line in a dose dependant fashion
  efficacy compared with paroxetine: higher efficacy than paroxetine
[4]; ip 10, 20 and 30 mg/kg, observed 4 h and after 24 h
  behavioral changes: none of the animals showed any observed change in behavior
[4]; ip 10, 20 and 30 mg/kg, over 12 days
  changes in food intake or body weight: none of the animals exhibited changes in food intake or body weight
[4]; ip, up to 30 mg/kg
  tolerability of acute ip administration: well tolerated
[5]; HT29 tumor in nude mice, end of treatment, FIG. 17
  tumor weight: very similar to the tumor weight of mice treated with 5 FU
[5]; HT29 tumor in nude mice, ip 3 times weekly, after 3 and 4 weeks of therapy, FIG. 16
  tumor volume: significantly decreased compared to the control groups
[5]; compared to 5 FU or controls, FIG. 18
  decrease in body weight: 10%
[5]; end of treatment
  histopathological assessment of spleen, liver and kidney: change in capsule fibrosis at random
[5]; mice model, 30 mg/kg ip
  efficacy in inhibiting human colon cancer tumor growth: high efficacy superior to sertraline
[6]; 2.3 μg/ml
  Test/Control (%): 101%
  Test/Control activity class: − (− (T/C = 50))
[6]; 7.5 μg/ml
  Test/Control (%): 5%
  Test/Control activity class: +++ (+++ (T/C < 10))
[6]; 23. μg/ml
  Test/Control (%): 3%
  Test/Control activity class: +++ (+++ (T/C < 10))
[6]; 75. μg/ml
  Test/Control (%): 1%
  Test/Control activity class: +++ (+++ (T/C < 10))
[6]; .75 μg/ml
  Test/Control (%): 97%
  Test/Control activity class: − (− (T/C = 50))
[7]; 2.3 μg/ml
  Test/Control (%): 100%
  Test/Control activity class: − (− (T/C = 50))
[7]; 7.5 μg/ml
  Test/Control (%): 3%
  Test/Control activity class: +++ (+++ (T/C < 10))
[7]; 23. μg/ml
  Test/Control (%): 1%
  Test/Control activity class: +++ (+++ (T/C < 10))
[7]; 75. μg/ml
  Test/Control (%): 1%
  Test/Control activity class: +++ (+++ (T/C < 10))
[7]; .75 μg/ml
  Test/Control (%): 99%
  Test/Control activity class: − (− (T/C = 50))
[8]; 2.3 μg/ml
  Test/Control (%): 80%
  Test/Control activity class: − (− (T/C = 50))
[8]; 7.5 μg/ml
  Test/Control (%): 54%
  Test/Control activity class: − (− (T/C = 50))
[8]; 23. μg/ml
  Test/Control (%): 7%
  Test/Control activity class: +++ (+++ (T/C < 10))
[8]; 75. μg/ml
  Test/Control (%): 3%
  Test/Control activity class: +++ (+++ (T/C < 10))
[8]; .75 μg/ml
  Test/Control (%): 90%
  Test/Control activity class: − (− (T/C = 50))
[9]; 2.3 μg/ml
  Test/Control (%): 101%
  Test/Control activity class: − (− (T/C = 50))
[9]; 7.5 μg/ml
  Test/Control (%): 42%
  Test/Control activity class: + (+ (30 <= T/C < 50))
[9]; 23. μg/ml
  Test/Control (%): 4%
  Test/Control activity class: +++ (+++ (T/C < 10))
[9]; 75. μg/ml
  Test/Control (%): 3%
  Test/Control activity class: +++ (+++ (T/C < 10))
[9]; .75 μg/ml
  Test/Control (%): 94%
  Test/Control activity class: − (− (T/C = 50))
[10]; 2.3 μg/ml
  Test/Control (%): 88%
  Test/Control activity class: − (− (T/C = 50))
[10]; 7.5 μg/ml
  Test/Control (%): 30%
  Test/Control activity class: + (+ (30 <= T/C < 50))
[10]; 23. μg/ml
  Test/Control (%): 4%
  Test/Control activity class: +++ (+++ (T/C < 10))
[10]; 75. μg/ml
  Test/Control (%): 5%
  Test/Control activity class: +++ (+++ (T/C < 10))
[10]; .75 μg/ml
  Test/Control (%): 95%
  Test/Control activity class: − (− (T/C = 50))
[11]; 2.3 μg/ml
  Test/Control (%): 88%
  Test/Control activity class: − (− (T/C = 50))
[11]; 7.5 μg/ml
  Test/Control (%): 2%
  Test/Control activity class: +++ (+++ (T/C < 10))
[11]; 23. μg/ml
  Test/Control (%): 1%
  Test/Control activity class: +++ (+++ (T/C < 10))
[11]; 75. μg/ml
  Test/Control (%): 1%
  Test/Control activity class: +++ (+++ (T/C < 10))
[11]; .75 μg/ml
  Test/Control (%): 98%
  Test/Control activity class: − (− (T/C = 50))
[12]; 2.3 μg/ml
  Test/Control (%): 80%
  Test/Control activity class: − (− (T/C = 50))
[12]; 7.5 μg/ml
  Test/Control (%): 24%
  Test/Control activity class: ++ (++ (10 <= T/C < 30))
[12]; 23. μg/ml
  Test/Control (%): 2%
  Test/Control activity class: +++ (+++ (T/C < 10))
[12]; 75. μg/ml
  Test/Control (%): 2%
  Test/Control activity class: +++ (+++ (T/C < 10))
[12]; .75 μg/ml
  Test/Control (%): 85%
  Test/Control activity class: − (− (T/C = 50))
[13]; 2.3 μg/ml
  Test/Control (%): 94%
  Test/Control activity class: − (− (T/C = 50))
[13]; 7.5 μg/ml
  Test/Control (%): 4%
  Test/Control activity class: +++ (+++ (T/C < 10))
[13]; 23. μg/ml
  Test/Control (%): 1%
  Test/Control activity class: +++ (+++ (T/C < 10))
[13]; 75. μg/ml
  Test/Control (%): 1%
  Test/Control activity class: +++ (+++ (T/C < 10))
[13]; .75 μg/ml
  Test/Control (%): 102%
  Test/Control activity class: − (− (T/C = 50))
[14]; 2.3 μg/ml
  Test/Control (%): 103%
  Test/Control activity class: − (− (T/C = 50))
[14]; 7.5 μg/ml
  Test/Control (%): 9%
  Test/Control activity class: +++ (+++ (T/C < 10))
[14]; 23. μg/ml
  Test/Control (%): 3%
  Test/Control activity class: +++ (+++ (T/C < 10))
[14]; 75. μg/ml
  Test/Control (%): 3%
  Test/Control activity class: +++ (+++ (T/C < 10))
[14]; .75 μg/ml
  Test/Control (%): 94%
  Test/Control activity class: − (− (T/C = 50))
[15]; 10-30 μM, FIG. 2A
  potency compared with paroxetine: higher potency than paroxetine
[15]; equimolar doses, FIG. 2B
  potency compared with paroxetine and fluoxetine: significantly more potent than paroxetine and fluoxetine
